Data taken from the supplement of paper PMC10331698.
± gives the standard deviation of the averaged measurements.

Key:
Assay in all cases: level (log10 ratio to DMSO vehicle control); higher = higher biomarker level / cell amount than vehicle control
Details in all cases: in DMSO
Perfluoro-1-iodohexane = compound: FC(F)(F)C(F)(F)C(F)(F)C(F)(F)C(F)(F)C(F)(F)I [Perfluoro-1-iodohexane]
Protocol: (§1)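 BioMAP Diversity Plus panel of 12 human primary cell co-culture systems (3C, 4H, LPS, SAg, BT, BF4T, BE3C, CASM3C, HDF3CGF, KF3CT, MyoF, Mphg). Compounds were added 1 h before stimulation and left for 24 h (MyoF 48 h; BT 72 h for soluble read-outs or 6 d for IgG). Biomarkers were read by ELISA, cytotoxicity by SRB, PBMC viability and proliferation by Alamar Blue. Each well value was divided by the mean of 8 DMSO control wells on the same plate and log10 transformed; duplicate blinded samples were tested at 4 concentrations.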

[1] = compound: O=C(O)C(F)(F)C(F)(F)OC(F)(F)F [Perfluoro-3-methoxypropanoic acid]
Protocol: as §1

[2] = compound: O=C(O)C(F)(F)C(F)(F)C(F)(F)OC(F)(C(F)(F)F)C(F)(F)F [Perfluoro-4-isopropoxybutanoic acid]
Protocol: as §1

[3] = compound: C=CC(=O)OCC(F)(F)C(F)(F)C(F)(F)C(F)(F)C(F)(F)C(F)(F)C(F)(F)F [1H,1H-Perfluorooctyl acrylate]
Protocol: as §1

Perfluorodecanoic acid = compound: O=C(O)C(F)(F)C(F)(F)C(F)(F)C(F)(F)C(F)(F)C(F)(F)C(F)(F)C(F)(F)C(F)(F)F [Perfluorodecanoic acid]
Protocol: as §1

[4] = compound: FC(F)(F)C(F)(F)C(F)(F)C(F)(F)C(F)(F)C(F)(F)C(F)(F)C(F)(F)CCS [2-(Perfluorooctyl)ethanthiol]
Protocol: as §1

[5] = compound: O=S(=O)(O)C(F)(F)C(F)(F)C(F)(F)C(F)(F)C(F)(F)C(F)(F)F [Perfluorohexanesulfonic acid]
Protocol: as §1

Row | Test System | level (log10) (Perfluoro-1-iodohexane; 6700 nM) | level (log10) (Perfluoro-1-iodohexane; 20000 nM) | level (log10) (Perfluoro-1-iodohexane; 60000 nM) | level (log10) ([1]; 6700 nM) | level (log10) ([1]; 20000 nM) | level (log10) ([1]; 60000 nM) | level (log10) ([2]; 6700 nM) | level (log10) ([2]; 20000 nM) | level (log10) ([2]; 60000 nM) | level (log10) ([3]; 6700 nM) | level (log10) ([3]; 20000 nM) | level (log10) ([3]; 60000 nM) | level (log10) (Perfluorodecanoic acid; 6700 nM) | level (log10) (Perfluorodecanoic acid; 20000 nM) | level (log10) ([4]; 6700 nM) | level (log10) ([4]; 20000 nM) | level (log10) ([5]; 6700 nM) | level (log10) ([5]; 20000 nM) | level (log10) ([5]; 60000 nM)
1 | MyoF:CXCL8/IL-8 | 0.021 ± 0.041 | 0.023 ± 0.041 | 0.0385 ± 0.028 | 0.001 ± 0.033 | -0.0165 ± 0.0092 | 0.0475 ± 0.0078 | 0.0195 ± 0.06 | 0.077 ± 0.079 | 0.0735 ± 0.074 | 0.002 ± 0.0099 | 0.037 ± 0.062 | 0.0185 ± 0.036 | 0.0205 ± 0.037 | 0.0085 ± 0.016 | -0.0085 ± 0.011 | 0.007 ± 0.016 | 0.001 ± 0.061 | -0.0185 ± 0.063 | -0.018 ± 0.051
2 | MyoF:Collagen I | -0.0295 ± 0.019 | -0.062 ± 0.04 | -0.246 ± 0.094 | 0.006 ± 0.02 | 0 ± 0.016 | 0.0165 ± 0.013 | -0.0045 ± 0.0035 | -0.0035 ± 0.021 | 0.0075 ± 0.016 | -0.0195 ± 0.018 | -0.03 | -0.0145 ± 0.011 | -0.0065 ± 0.059 | -0.417 ± 0.071 | -0.001 ± 0.042 | -0.0265 ± 0.029 | -0.0035 ± 0.023 | 0.008 ± 0.025 | 0.019 ± 0.028
3 | MyoF:Collagen III | -0.0225 ± 0.0064 | -0.039 ± 0.0057 | -0.132 ± 0.036 | 0.004 ± 0.0099 | 0.0095 ± 0.0078 | 0.013 ± 0.0014 | -0.0095 ± 0.011 | -0.001 ± 0.0014 | 0.0025 ± 0.021 | 0.0005 ± 0.013 | -0.007 ± 0.024 | -0.0055 ± 0.021 | -0.028 ± 0.03 | -0.36 ± 0.066 | -0.0105 ± 0.015 | -0.0345 ± 0.018 | 0.0035 ± 0.005 | -0.013 ± 0.0028 | -0.0125 ± 0.033
4 | MyoF:Collagen IV | -0.033 ± 0.027 | -0.031 ± 0.028 | 0.193 ± 0.013 | -0.021 ± 0.02 | 0.002 ± 0.0085 | 0.009 ± 0.013 | -0.007 ± 0.035 | -0.0025 ± 0.06 | 0.014 ± 0.047 | 0.034 ± 0.054 | 0.03 ± 0.035 | 0.062 ± 0.071 | 0.334 ± 0.037 | 0.38 ± 0.086 | -0.009 ± 0.09 | 0.012 ± 0.05 | -0.023 ± 0.018 | -0.0065 ± 0.032 | 0 ± 0.031
5 | MyoF:Decorin | 0.0185 ± 0.011 | 0.023 ± 0.0042 | -0.012 ± 0.044 | 0.005 ± 0.017 | 0.0085 ± 0.0078 | 0.0085 ± 0.03 | 0.008 ± 0.0057 | 0.023 ± 0.027 | 0.065 ± 0.061 | -0.0145 ± 0.011 | -0.005 | 0.003 ± 0.018 | 0.0055 ± 0.0064 | -0.071 ± 0.018 | -0.0145 ± 0.018 | -0.0105 ± 0.033 | -0.0305 ± 0.046 | -0.0105 ± 0.00071 | -0.0095 ± 0.0064
6 | MyoF:MMP-1 | 0.036 ± 0.0071 | 0.451 ± 0.19 | 0.661 ± 0.0028 | -0.0135 ± 0.0064 | 0.0055 ± 0.011 | 0.0105 ± 0.043 | -0.0155 ± 0.0092 | 0.0115 ± 0.013 | 0.045 ± 0.051 | -0.0135 ± 0.019 | -0.016 | 0.0275 ± 0.005 | -0.0005 ± 0.023 | -0.048 ± 0.0057 | -0.0265 ± 0.0092 | -0.0545 ± 0.037 | -0.029 ± 0.0085 | -0.012 | -0.002 ± 0.0028
7 | MyoF:PAI-I | -0.001 ± 0.0028 | -0.025 ± 0.0057 | -0.12 ± 0.054 | 0.0045 ± 0.016 | -0.001 ± 0.0014 | 0.0025 ± 0.0035 | -0.0035 ± 0.015 | -0.007 ± 0.0042 | 0.006 ± 0.018 | 0.005 ± 0.016 | -0.0005 ± 0.018 | -0.0065 ± 0.0078 | 0.0035 ± 0.012 | 0.0205 ± 0.025 | -0.001 ± 0.0042 | -0.0005 ± 0.012 | -0.0055 ± 0.013 | -0.0135 ± 0.015 | -0.0055 ± 0.012
8 | MyoF:SRB | -0.0405 ± 0.05 | -0.263 ± 0.16 | -0.712 ± 0.15 | -0.005 ± 0.0042 | -0.004 ± 0.0028 | 0 ± 0.0014 | -0.0055 ± 0.0021 | 0.0015 ± 0.00071 | -0.0035 ± 0.0064 | -0.003 ± 0.011 | -0.012 ± 0.018 | -0.0335 ± 0.005 | -0.033 ± 0.0014 | -0.08 ± 0.0099 | -0.0005 ± 0.0092 | 0.0025 ± 0.0021 | 0.003 ± 0.0057 | -0.0045 ± 0.0035 | -0.0165 ± 0.021
9 | MyoF:TIMP-1 | 0.036 ± 0.0085 | 0.0395 ± 0.011 | -0.058 ± 0.0014 | 0.015 ± 0.055 | 0.0185 ± 0.033 | 0.0455 ± 0.012 | 0.0135 ± 0.059 | 0.0705 ± 0.083 | 0.0855 ± 0.1 | 0.0075 ± 0.012 | 0.037 ± 0.0014 | 0.0405 ± 0.005 | -0.0345 ± 0.035 | -0.059 ± 0.038 | -0.033 ± 0.014 | -0.0215 ± 0.005 | 0.0215 ± 0.064 | 0.0835 ± 0.053 | 0.099 ± 0.042
10 | MyoF:alpha-SM Actin | -0.073 ± 0.021 | -0.173 ± 0.086 | -0.38 ± 0.0092 | 0.0015 ± 0.00071 | 0.011 ± 0.035 | 0.039 ± 0.0028 | 0.0045 ± 0.023 | 0.008 ± 0.033 | 0.026 ± 0.052 | 0.016 ± 0.0085 | -0.0215 ± 0.032 | -0.0185 ± 0.039 | 0.031 ± 0.027 | -0.04 ± 0.016 | -0.0145 ± 0.036 | -0.103 ± 0.037 | 0.012 ± 0.0071 | 0.006 ± 0.021 | 0.008 ± 0.031
11 | MyoF:bFGF | -0.0085 ± 0.0064 | -0.002 ± 0.0042 | 0.0235 ± 0.036 | 0.002 ± 0.018 | -0.004 ± 0.037 | 0.0045 ± 0.025 | -0.014 ± 0.016 | -0.0225 ± 0.026 | -0.004 ± 0.027 | 0.003 | -0.0055 ± 0.0021 | 0.012 ± 0.024 | 0.001 ± 0.0042 | 0.0055 ± 0.0035 | -0.0075 ± 0.019 | -0.017 ± 0.0014 | 0.0035 ± 0.005 | 0.005 ± 0.0085 | 0.004 ± 0.014
